Reference: patent US8796253B2, “Heteroaryl substituted pyrazole derivatives useful for treating hyper-proliferative disorders and diseases associated with angiogenesis” (Bayer Intellectual Property GmbH, priority 2007, dated 2014)

These compounds were tested on HCT-116 cells stably transfected with a Luciferase reporter gene under the control of HIF-responsive element (assay: HIF-Luciferase Assay). Settings: Homo sapiens, HCT-116, HIF-Luciferase Assay, HCT-116 reporter cells, overnight at 1% oxygen; group >10, unit inferred.
Assay type: cell-based
Description: HCT-116 cells stably transfected with a Luciferase reporter gene under the control of HIF-responsive element were plated in white 96- or 384-well plates at 30,000 or 5,000 cells/well, respectively, in 50 μL/well media (RPMI with 10% fetal bovine serum and 100 μg/mL Hygromycin). Cells were incubated overnight at 37° C. in a humidified incubator containing 5% CO2 under normal oxygen. The next day test compounds were added to the wells at various concentrations (0-10 μM, 0.1% final DMSO concentration) and placed in a hypoxic chamber overnight at 1% oxygen. Following the exposure to hypoxic conditions, 50 μL/well of Bright Glo reagent (Promega, Wisconsin, USA) was added to the wells and luminescence was measured after 5 min. Cells incubated under normal oxygen levels were used as background control. […] Compounds that have IC50 values between 1 μM and 10 μM include those of Examples 8, 16, 38, 39, 40, 41, 42, 43, 47, 48, 53, 54, 56, 57, 66, 69, and 72.

Row | SMILES | IC50
1 | Cc1ccc(Cn2nc(-c3nc4ccc(N5CCN(C)CC5)cc4[nH]3)cc2C)cc1 [Example 50, 2-[5-methyl-1-(4-methylbenzyl)-1H-pyrazol-3-yl]-6-(4-methylpiperazin-1-yl)-1H-benzimidazole] | > 10000 nM
2 | Cc1ccc(Cn2nc(-c3nc4cc(C(C)(C)c5ccccc5)ccc4o3)cc2C)cc1 [Example 32, 2-[5-methyl-1-(4-methylbenzyl)-1H-pyrazol-3-yl]-5-(1-methyl-1-phenylethyl)-1,3-benzoxazole] | > 10000 nM
3 | Cc1ccc(Cn2nc(-c3nc(-c4ccc(F)c(Br)c4)no3)cc2C)cc1 [Example 15, 3-(3-bromo-4-fluorophenyl)-5-[5-methyl-1-(4-methylbenzyl)-1H-pyrazol-3-yl]-1,2,4-oxadiazole] | > 10000 nM
4 | Cc1ccc(Cn2nc(-c3nc4cc(Cc5ccccc5)ccc4o3)cc2C)cc1 [Example 33, 5-benzyl-2-[5-methyl-1-(4-methylbenzyl)-1H-pyrazol-3-yl]-1,3-benzoxazole] | > 10000 nM

Same assay, conditions: Homo sapiens, HCT-116, HIF-Luciferase Assay, HCT-116 reporter cells, overnight at 1% oxygen; individual values

Row | SMILES | IC50
5 | Cc1ccc(Cn2nc(-c3nc(-c4ccc(Cn5cccc5)cc4)no3)cc2C)cc1 [Example 140, 5-[5-Methyl-1-(4-methylbenzyl)-1H-pyrazol-3-yl]-3-[4-(1H-pyrrol-1-yl-methyl)phenyl]-1,2,4-oxadiazole] | 40 nM
6 | Cc1ccc(Cn2nc(-c3nc(-c4ccc(-c5ccccc5)cc4)c[nH]3)cc2C)cc1 [Example 67, 3-(4-biphenyl-4-yl-1H-imidazol-2-yl)-5-methyl-1-(4-methylbenzyl)-1H-pyrazole] | 8 nM
7 | Cc1ccc(Cn2nc(-c3nc(-c4ccc(C(C)(C)C)cc4)no3)cc2C)cc1 [Example 4, 3-(4-tert-butylphenyl)-5-[5-methyl-1-(4-methylbenzyl)-1H-pyrazol-3-yl]-1,2,4-oxadiazole] | 5 nM
8 | Cc1ccc(Cn2nc(-c3nc(-c4ccc(OC(F)(F)F)cc4)no3)cc2C)cc1 [Example 1] | 30 nM
9 | Cc1cc(-c2nc(-c3ccc(OC(F)(F)F)cc3)no2)nn1Cc1ccc(Cl)cc1 [Example 120, 5-[1-(4-Chlorobenzyl)-5-methyl-1H-pyrazol-3-yl]-3-[4-(trifluoromethoxy)phenyl]-1,2,4-oxadiazole] | 20 nM
10 | Cc1ccc(Cn2nc(-c3nc4ccc(-c5ccc(Cl)cc5)cc4[nH]3)cc2C)cc1 [Example 64, 6-(4-chlorophenyl)-2-[5-methyl-1-(4-methylbenzyl)-1H-pyrazol-3-yl]-1H-benzimidazole] | 3 nM

Same assay, conditions: Homo sapiens, HCT-116, HIF-Luciferase Assay, HCT-116 reporter cells, overnight at 1% oxygen; potency groups

Row | SMILES | IC50
11 | Cc1ccc(Cn2nc(-c3nc(-c4ccc(OCc5ccc(Cl)cc5)cc4)no3)cc2C)cc1 [Example 2, 3-{4-[(4-chlorobenzyl)oxy]phenyl}-5-[5-methyl-1-(4-methylbenzyl)-1H-pyrazol-3-yl]-1,2,4-oxadiazole] | ≤ 1000 nM
12 | Cc1ccc(Cn2nc(-c3nc4c(C)cccc4[nH]3)cc2C)cc1 [Example 40, 4-methyl-2-[5-methyl-1-(4-methylbenzyl)-1H-pyrazol-3-yl]-1H-benzimidazole] | 1000 to 10000 nM
13 | Cc1ccc(Cn2nc(-c3nc4ccccc4[nH]3)cc2C)cc1 [Example 38, 2-[5-methyl-1-(4-methylbenzyl)-1H-pyrazol-3-yl]-1H-benzimidazole] | 1000 to 10000 nM
14 | Cc1ccc(Cn2nc(-c3nc(-c4ccc(-c5ccccc5)cc4)c[nH]3)cc2C)cc1 [Example 67, 3-(4-biphenyl-4-yl-1H-imidazol-2-yl)-5-methyl-1-(4-methylbenzyl)-1H-pyrazole] | ≤ 1000 nM
15 | Cc1ccc(Cn2nc(-c3nc4ccc(-c5ccccc5Cl)cc4[nH]3)cc2C)cc1 [Example 62, 6-(2-chlorophenyl)-2-[5-methyl-1-(4-methylbenzyl)-1H-pyrazol-3-yl]-1H-benzimidazole] | ≤ 1000 nM
16 | Cc1ccc(Cn2nc(-c3nc(-c4ccc(C(C)(C)C)cc4)no3)cc2C)cc1 [Example 4, 3-(4-tert-butylphenyl)-5-[5-methyl-1-(4-methylbenzyl)-1H-pyrazol-3-yl]-1,2,4-oxadiazole] | ≤ 1000 nM
17 | Cc1ccc(Cn2nc(-c3nc4ccc(-c5ccccc5F)cc4[nH]3)cc2C)cc1 [Example 60, 6-(2-fluorophenyl)-2-[5-methyl-1-(4-methylbenzyl)-1H-pyrazol-3-yl]-1H-benzimidazole] | ≤ 1000 nM
18 | Cc1ccc(Cn2nc(-c3nc4ccc(-c5cccc(Cl)c5)cc4[nH]3)cc2C)cc1 [Example 63, 6-(3-chlorophenyl)-2-[5-methyl-1-(4-methylbenzyl)-1H-pyrazol-3-yl]-1H-benzimidazole] | ≤ 1000 nM
19 | Cc1ccc(Cn2nc(-c3nc4ccc(Cl)cc4[nH]3)cc2C)cc1 [Example 41, 6-chloro-2-[5-methyl-1-(4-methylbenzyl)-1H-pyrazol-3-yl]-1H-benzimidazole] | 1000 to 10000 nM
20 | Cc1ccc(Cn2nc(-c3nc4ccc(-c5ccccc5)cc4[nH]3)cc2C)cc1 [Example 45, 2-[5-methyl-1-(4-methylbenzyl)-1H-pyrazol-3-yl]-6-phenyl-1H-benzimidazole] | ≤ 1000 nM
21 | Cc1ccc(Cn2nc(-c3nc4cc5cn[nH]c5cc4[nH]3)cc2C)cc1 [Example 48, 6-[5-methyl-1-(4-methylbenzyl)-1H-pyrazol-3-yl]-1,7-dihydroimidazo[4,5-f]indazole] | 1000 to 10000 nM
22 | Cc1ccc(Cn2nc(-c3nc(-c4ccc(N5CCCCC5)cc4)no3)cc2C)cc1 [Example 12, 1-(4-{5-[5-methyl-1-(4-methylbenzyl)-1H-pyrazol-3-yl]-1,2,4-oxadiazol-3-yl}phenyl)piperidine] | ≤ 1000 nM
23 | Cc1ccc(Cn2nc(-c3nc(-c4ccc(OC(F)(F)F)cc4)no3)cc2C)cc1 [Example 1] | ≤ 1000 nM
24 | Cc1ccc(Cn2nc(-c3nc(-c4ccc(N5CCOCC5)cc4)no3)cc2C)cc1 [Example 21, 4-(4-{5-[5-Methyl-1-(4-methylbenzyl)-1H-pyrazol-3-yl]-1,2,4-oxadiazol-3-yl}phenyl)morpholine] | ≤ 1000 nM
25 | Cc1ccc(Cn2nc(-c3nc4ccc(OC(F)(F)F)cc4[nH]3)cc2C)cc1 [Example 58, 2-[5-methyl-1-(4-methylbenzyl)-1H-pyrazol-3-yl]-6-(trifluoromethoxy)-1H-benzimidazole] | ≤ 1000 nM
26 | Cc1ccc(Cn2nc(-c3nc(-c4ccc(N5CCCC(C)C5)cc4)no3)cc2C)cc1 (centres unmarked) [Example 6, 3-methyl-1-(4-{5-[5-methyl-1-(4-methylbenzyl)-1H-pyrazol-3-yl]-1,2,4-oxadiazol-3-yl}phenyl)piperidine] | ≤ 1000 nM

Row | SMILES | IC50
27 | Cc1ccc(Cn2nc(-c3nc(-c4ccc(C5CCCCC5)cc4)no3)cc2C)cc1 [Example 11, 3-(4-cyclohexylphenyl)-5-[5-methyl-1-(4-methylbenzyl)-1H-pyrazol-3-yl]-1,2,4-oxadiazole] | ≤ 1000 nM
28 | Cc1ccc(Cn2nc(-c3nc(-c4ccc(-c5ccc(OC(F)(F)F)cc5)cc4)no3)cc2C)cc1 [Example 5, 5-[5-methyl-1-(4-methylbenzyl)-1H-pyrazol-3-yl]-3-[4′-(trifluoromethoxy)biphenyl-4-yl]-1,2,4-oxadiazole] | ≤ 1000 nM
29 | COCC(=O)Nc1ccc(-c2noc(-c3cc(C)n(Cc4ccc(C)cc4)n3)n2)cc1 [Example 27, 2-methoxy-N-(4-{5-[5-methyl-1-(4-methylbenzyl)-1H-pyrazol-3-yl]-1,2,4-oxadiazol-3-yl}phenyl)acetamide] | ≤ 1000 nM
30 | Cc1ccc(Cn2nc(-c3nc(-c4ccc(N5CCOC5=O)cc4)no3)cc2C)cc1 [Example 25, 3-(4-{5-[5-methyl-1-(4-methylbenzyl)-1H-pyrazol-3-yl]-1,2,4-oxadiazol-3-yl}phenyl)-1,3-oxazolidin-2-one] | ≤ 1000 nM
31 | Cc1ccc(Cn2nc(-c3nc(-c4ccc(C(F)(F)F)cc4)no3)cc2C)cc1 [Example 7, 5-[5-methyl-1-(4-methylbenzyl)-1H-pyrazol-3-yl]-3-[4-(trifluoromethyl)phenyl]-1,2,4-oxadiazole] | ≤ 1000 nM
32 | Cc1ccc(Cn2nc(-c3nc(-c4ccc(Br)cc4)no3)cc2C)cc1 [Example 3, 3-(4-bromophenyl)-5-[5-methyl-1-(4-methylbenzyl)-1H-pyrazol-3-yl]-1,2,4-oxadiazole] | ≤ 1000 nM
33 | Cc1ccc(Cn2nc(-c3nc4ccc(C5CCCCC5)cc4[nH]3)cc2C)cc1 [Example 51, 6-cyclohexyl-2-[5-methyl-1-(4-methylbenzyl)-1H-pyrazol-3-yl]-1H-benzimidazole] | ≤ 1000 nM
34 | Cc1ccc(Cn2nc(-c3nc4cc(-c5ccccc5)ccc4o3)cc2C)cc1 [Example 29, 2-[5-Methyl-1-(4-methylbenzyl)-1H-pyrazol-3-yl]-5-phenyl-1,3-benzoxazole] | ≤ 1000 nM
35 | Cc1ccc(Cn2nc(-c3nc(-c4ccccc4)c(-c4ccccc4)[nH]3)cc2C)cc1 [Example 66, 3-(4,5-diphenyl-1H-imidazol-2-yl)-5-methyl-1-(4-methylbenzyl)-1H-pyrazole] | 1000 to 10000 nM
36 | Cc1ccc(Cn2nc(-c3nc4ccc(-c5cccc(F)c5)cc4[nH]3)cc2C)cc1 [Example 61, 6-(3-fluorophenyl)-2-[5-methyl-1-(4-methylbenzyl)-1H-pyrazol-3-yl]-1H-benzimidazole] | ≤ 1000 nM
37 | Cc1ccc(Cn2nc(-c3nc4cc5ccccc5cc4[nH]3)cc2C)cc1 [Example 47, 2-[5-methyl-1-(4-methylbenzyl)-1H-pyrazol-3-yl]-1H-naphtho[2,3-d]imidazole] | 1000 to 10000 nM
38 | Cc1ccc(Cn2nc(-c3nc4ccc(-c5ccc(Cl)cc5)cc4[nH]3)cc2C)cc1 [Example 64, 6-(4-chlorophenyl)-2-[5-methyl-1-(4-methylbenzyl)-1H-pyrazol-3-yl]-1H-benzimidazole] | ≤ 1000 nM
39 | Cc1ccc(C(C)n2nc(-c3nc(-c4ccc(Br)cc4)no3)cc2C)cc1 (centres unmarked) [Example 8, 3-(4-bromophenyl)-5-{5-methyl-1-[1-(4-methylphenyl)ethyl]-1H-pyrazol-3-yl}-1,2,4-oxadiazole] | 1000 to 10000 nM
40 | Cc1ccc(Cn2nc(-c3nc(-c4ccc(N5CCOCC5=O)cc4)no3)cc2C)cc1 [Example 26, 4-(4-{5-[5-methyl-1-(4-methylbenzyl)-1H-pyrazol-3-yl]-1,2,4-oxadiazol-3-yl}phenyl)morpholin-3-one] | ≤ 1000 nM
41 | Cc1ccc(Cn2nc(-c3nc(-c4ccncc4)no3)cc2C)cc1 [Example 14, 4-{5-[5-Methyl-1-(4-methylbenzyl)-1H-pyrazol-3-yl]-1,2,4-oxadiazol-3-yl}pyridine] | ≤ 1000 nM
